Test in all cases: NCI tumour cell line growth inhibition, 48 h
Assay [1] concerns CAKI-1 renal.
For assay [2], the system named is DMS 114 small cell lung.
Assay [3] has as its system HCC-2998 colon.
Assay [4] has as its system NCI-H460 lung.
Assay [5] relates to HCT-15 colon.
Assay [6] relates to K-562 leukemia.
The subject of assay [7] is OVCAR-5 ovarian.
Assay [8] has as its system ACHN renal.
In assay [9] the test system is NCI-H522 lung.
Assay [10] deals with RPMI-8226 leukemia.
In assay [11] the test system is SNB-78 CNS.
In assay [12] the test system is CCRF-CEM leukemia.
Assay [13] deals with SF-295 CNS.
Assay [14] concerns HL-60(TB) leukemia.
The test system of assay [15] is HCT-116 colon.
Assay [16] has as its system MOLT-4 leukemia.
Assay [17] relates to SF-539 CNS.
Assay [18] concerns RXF 393 renal.
Assay [19] has as its system HOP-92 NSCLC.
The test system of assay [20] is XF 498 CNS.

Each structure is given as a SMILES string.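 In this assay, cells in 96-well plates receive the compound at five concentrations for 48 hours. Endpoints are linearly interpolated between the surrounding concentrations. TGI denotes the concentration required for complete inhibition of growth.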

Consider `C=CCc1c(O)c2c(c3oc(=O)cc(C)c13)CC(C)O2` (configuration not stated), for which the TGI in assay [1], in assay [2], in [3], in assay [4], in assay [5] and in [6] was > 100 µM in each case. The TGI in assay [7], in assay [8], in [9], in assay [10], in [11] and in assay [12] was > 100 µM throughout. Also, the TGI in assay [13], in [14], in assay [15], in assay [16], in assay [17] and in assay [18] was > 100 µM throughout.
`O=c1cc[nH]c(=O)[nH]1`: the TGI is > 920 µM in [1]; > 1000 µM in [2]; 528 µM in assay [3]; 883 µM in [4]; > 1000 µM in assay [5]; > 1000 µM in [6]. The TGI is > 956 µM in assay [7]; > 1000 µM in assay [19]; 923 µM in assay [9]; > 1000 µM in assay [10]; > 1000 µM in assay [11]; > 950 µM in assay [12]. In addition, the TGI in assay [13] is > 1000 µM; in [20], 7.72 µM; in [14], > 1000 µM; in assay [15], > 821 µM; in assay [16], > 919 µM; in assay [17], 926 µM. In [18], the TGI is > 889 µM.
Take `NC(CCCCCP(=O)(c1ccccc1)C1C=CC=CC1)C(=O)O` (configuration not stated): the TGI in assay [1], in [4], in assay [5], in assay [6], in assay [7] and in assay [19] was > 100 µM each time. Further, the TGI in [8], in assay [9], in [10], in [12], in assay [13] and in [14] was > 100 µM each time. The TGI in assay [15], in [16], in [17] and in assay [18] was > 100 µM in each case.
For `O=c1sc2ccccc2n1CC1CS1` (configuration not stated), the TGI in assay [1], in assay [2], in assay [3], in [4], in assay [5] and in assay [6] was > 100 µM in each case. Besides, the TGI in [7], in assay [19], in assay [8], in assay [9], in assay [10] and in assay [12] was > 100 µM in each case. The TGI in [13], in [20], in [14], in [15], in assay [16] and in [17] was > 100 µM throughout. For the same compound, the TGI in assay [18] is > 100 µM.
With `CC(=O)OC1/C=C(\C)C(OC(C)=O)C/C=C(/C)CCC2C(/C=C/C1=O)C2(C)C` (configuration not stated), the TGI in assay [3], in assay [4], in [5], in assay [7], in [19] and in assay [8] was > 100 µM in each case. Besides, the TGI in assay [9], in [11], in [12], in assay [13], in assay [20] and in assay [15] was > 100 µM in each case. For the same compound, the TGI in assay [16], in [17] and in assay [18] was > 100 µM in each case.

These data come from PubChem BioAssay (NCI).
